Read-outs that look alike come from different tables or passages of the source.
Experiments:
[1] = test system: MDA-MB-435 (melanoma) human tumor cell line; test: MTS growth inhibition assay, MDA-MB-435; assay type: cell-based; details: 3 h treatment, 72 h recovery
Description: The agents PDX, PDX-10a, PDX-10b, were evaluated for growth inhibitory activity against, MDA-MB-435, SKBR-3 and NCI-H460 human tumor cell lines. Growth inhibition was measured by MTS assay following three hours of continuous treatment and a seventy-two hour recovery incubation. The purpose of these studies was to determine the cytotoxic activity of the compounds in the tumor cell lines studies studied.
Materials and Methods. Preparation of PDX-10a and PDX-10b was performed as discussed in Examples 1-2. The PDX compounds were diluted in dimethylsulfoxide (DMSO) at a concentration of 20 mM. From this solution a stock solution of 2 mM was made by dilution with phosphate-buffered saline (PBS). This 2 mM stock solution in 10% DMSO/90% PBS was used to make 2× concentrations of the titration series in cell growth medium which was added to the cell cultures in a 1:1 ratio to make 1× concentrations. Cell lines—The human tumor cell lines: MDA-MB-435 (melanoma), SKBR-3 (breast cancer) and NCI-H460 (lung cancer) were cultured in RPMI medium (RPMI; Nova Tech, Grand Island, N.Y.) containing ten percent dialyzed fetal bovine serum (FBS; Nova Tech). Once cells reached seventy percent confluency, they were trypsinized and resuspended in an alternate media (RPMI containing five percent dialyzed FBS (Hyclone, Logan, Utah). One day prior to treatment (Day 0), cultures were suspended at a concentration of 1−7.5×10^4 cell/ml and 100 μl aliquots were plated into each well of a 96-well microtiter plate at a final concentration of 1×10^3-7.5×10^3 cells/well. Cells were incubated for 24 hours at 37° C. prior to exposure with agents.
Test Agents—racemic PDX, and individual diastereomers PDX-10a and PDX-10b were prepared as described above. Cells were treated 24 hours after plating (Day 1) with vehicle (media) alone or the above test agents for three hours at concentrations between 3 μM and 10 μM.
Single Agent Pulse Studies—Treatment with test agents or standard agents (controls) was initiated 24 hours after plating cells (Day 1). Cells were incubated at 37° C. with each of the test agents or a “chemococktail” (positive control) consisting of 215 μM Etoposide, 20 μM Taxol, 38.5 nM Velcade at final concentration for three hours. Following treatment, drug was removed, growth media added, and cells incubated at 37° C. for 72 hours. Following incubation, the viable cell number was quantified by the MTS assay described below. Experiments were repeated twice at the same concentrations. Results from these studies were used to calculate an IC50 value (concentration of drug that inhibits cell growth by 50% of the vehicle) for each compound. IC50 values were generated with Prizm software.
MTS Assay—Cell viability was determined using the MTS assay. This colorimetric procedure measures conversion of the MTS reagent (a tetrazolium salt) to formazan by living cells. Formazan production was quantified by spectrophotometric measurement at 490 nm and is proportional to viable cell number. For these studies, cells were cultured and treated as listed above. At the end of the treatment, 20 μl MTS tetrazolium (1.9 mg/ml in PBS, pH 6.0) was added to the cells for 1 hour at 37° C. Absorbance (OD) values were measured using a Dynex HD microplate reader at a single wavelength of 490 nm.
Data Analysis—Data from each experiment was collected and expressed as OD490 versus the log10 of the test agent concentration. […]

cancer cell lines = test: In vitro cytotoxicity in additional solid and heme cancer cell lines; assay type: cell-based; details: some / other cell lines (T-cell lymphoma, multiple myeloma, others); Example 5
Description: Additional cancer cell lines can be tested in accordance with the methods outlined in Example 3. Cancer cell lines for T-cell lymphoma, multiple myeloma, hematologic malignancies, head and neck cancer, cancer of the gastrointestinal tract, ovarian cancer, and osteosarcoma are tested with PDX-10a and PDX-10b.

[2] = Population pharmacokinetics in cancer patients after racemic PDX; details: 3-compartment model, 154 cancer patients, IV racemic PDX
Description: Population (POP) pharmacokinetic (PK) parameters and effects of covariate factors (COV) for PDX-10a and PDX-10b after administration of racemic PDX in cancer patients were analyzed. POPPK data were pooled from 3 studies: 1) a phase 1 study in non-small lung cancer patients with intravenous (IV) doses of 150-325 mg/m^2, 2) a phase 1 study in advanced cancer patients with IV doses of 80-140 mg/m^2 plus a taxane, and 3) a phase 2 study in patients with relapsed or refractory PTCL at a dose of 30 mg/m^2/week IV. POP PK data for each diastereomer were analyzed using nonlinear mixed effects modeling with first-order conditional estimation. Model qualification included non-parametric bootstrap and predictive checks. Results: The POP PK database was comprised of 154 patients (94 males & 60 females, ages 21-85 years, weights 42.9-158 kg), contributing 1176 PDX-10a and 1173 PDX-10b plasma concentrations.

[3] = test system: Type II collagen arthritis; test: Type II collagen arthritis mouse model; assay type: in vivo; details: DBA/1 mice, some / other components/aspects of the arthritis, Example 7
Description: The study uses a mouse model of inflammatory disease that occurs in response to an antigenic challenge with Type II collagen according to method described in Nature, 283, 666-668 […]. DBA/1 mice are immunized with a suspension of fetal bovine Type II collagen (1 mg/ml) prepared in complete Freund's adjuvant. The primary injection is given using 0.1 ml of the collagen emulsion giving a total of 0.1 mg of Type II collagen per mouse. The animals are given a booster injection of Type II collagen (100 μg in 0.01M acetic acid) on day 21 by intraperitoneal injection.
The effect of methotrexate and test compounds racemic PDX, PDX-10a and PDX-10b on the extent of inflammation is determined by visual observation and by direct analysis of paw swelling using caliper measurements.

[4] = Pharmacokinetics in dog (PDX-T-07054-D); assay type: in vivo; details: for clearance / Vd / half-life: dog, plasma, 0.7 mg/kg; for half-life: read-out: t1/2 term
Description: Bioanalytical methods were developed and validated for quantitation of the 2 pralatrexate C10 diastereomers (PDX-10a and PDX-10b) in human, rat and dog plasma and urine. The basic bioanalytical method involves extraction of PDX-10a and PDX-10b from the matrix utilizing C18 solid-phase extraction (SPE) cartridges followed by derivatization (methylation with acetyl chloride) of the diastereomers for separation detection. The derivatized extracts are injected on a chiral high-performance liquid chromatography (HPLC) column for quantitation of each diastereomer by liquid chromatography-tandem mass spectrometry (LC/MS/MS). The lower limit of quantitation (LLOQ) for both diastereomers in plasma and urine matrices was 0.5 ng/mL. […]

[5] = Homo sapiens, MDA-MB-435, MDA-MB-435 (melanoma)
[6] = both sexes, Day 1, 0.7 mg/kg, range of the mean for males and females and for PDX-10a and PDX-10b, read-out: CLtot
[7] = both sexes, Day 1, 0.7 mg/kg, range of the mean for males and females and for PDX-10a and PDX-10b, read-out: Vdss
[8] = both sexes, Day 1, 0.7 mg/kg, range of the mean for males and females and for PDX-10a and PDX-10b
[9] = both sexes, Day 1, calculated using average BW 8.5 kg, read-out: Vdss relative to BW
[10] = both sexes, Day 281, 0.7 mg/kg, range of the mean for males and females and for PDX-10a and PDX-10b, read-out: CLtot
[11] = both sexes, Day 281, 0.7 mg/kg, range of the mean for males and females and for PDX-10a and PDX-10b, read-out: Vdss
[12] = both sexes, Day 281, 0.7 mg/kg, range of the mean for males and females and for PDX-10a and PDX-10b
[13] = Day 1, calculated using average BW 8.5 kg, read-out: CLtot relative to BW

IC50 [1, 5] [nM] | IC50 ([1]; MDA-MB-435 (melanoma)) [nM] | 1st inter-CMT CL, POP PK parameter estimate [2] [L/h] | 2nd inter-CMT CL, POP PK parameter estimate [2] [L/h] | clearance (CL), POP PK parameter estimate [2] [L/h] | volume for CMT 1, POP PK parameter estimate [2] [L] | volume for CMT 2, POP PK parameter estimate [2] [L] | volume for CMT 3, POP PK parameter estimate [2] [L] | clearance [4, 6] [mL/min] | Vd [4, 7] [L] | half-life [4, 8] [h] | Vd [4, 9] [L/kg] | clearance [4, 10] [mL/min] | Vd [4, 11] [L] | half-life [4, 12] [h] | clearance [4, 13] [mL/min/kg] | higher clearance of PDX-10b compared with PDX-10a ([4]; dogs) [fold] | Compound | cytotoxic activity relative to racemate and other diastereomer (cancer cell lines) | antiarthritic activity relative to racemate and other diastereomer [3]
121 | 121 | 5.53 | 0.601 | 17.2 | 8.89 | 6.79 | 12.65 | 34 to 81 | 8 to 16 | 4.4 to 4.9 | 0.9 to 1.9 | 58 to 95 | 15 to 24 | 4.7 to 5.5 | 4 to 10 | 2 | C#CC[C@H](Cc1cnc2nc(N)nc(N)c2n1)c1ccc(C(=O)N[C@@H](CCC(=O)O)C(=O)O)cc1 (single isomer, unassigned) [PDX-10b] | increased activity relative to racemic PDX and/or PDX-10a | increased activity relative to racemic PDX and/or PDX-10a
100 |  | 6.97 | 1.43 | 35.0 | 11.0 | 9.71 | 50.6 | 34 to 81 | 8 to 16 | 4.4 to 4.9 | 0.9 to 1.9 | 58 to 95 | 15 to 24 | 4.7 to 5.5 | 4 to 10 |  | C#CC[C@@H](Cc1cnc2nc(N)nc(N)c2n1)c1ccc(C(=O)N[C@@H](CCC(=O)O)C(=O)O)cc1 (single isomer, unassigned) [PDX-10a] | increased activity relative to racemic PDX and/or PDX-10b | increased activity relative to racemic PDX and/or PDX-10b

— patent publication US8835433B2, “Optically pure diastereomers of 10-Propargyl-10-deazaaminopterin and methods of using same for the treatment of cancer” (Allos Therapeutics, Inc., priority 2010, dated 2014)
